Source: PMC12055592, “Post-symptomatic NLRP3 inhibition rescues cognitive impairment and mitigates amyloid and tau driven neurodegeneration” (Npj Dementia, 2025)

Columns and labels:
[1] = system: NLRP3 inflammasome, IL-1β release in human PBMCs; experiment: PBMC in vitro assay (LPS priming, nigericin, secreted IL-1β); format: cell-based
Description: Cryopreserved human PBMCs (iXCells Biotechnologies, San Diego, CA) were rapidly thawed and incubated overnight at 37 °C with 5% CO2 in Complete Media: RPMI 1640 medium (ATCC modification, Thermo Fisher Scientific) supplemented with 10% Fetal bovine serum (FBS, Thermo Fisher Scientific) and 1% Penicillin-Streptomycin (Thermo Fisher Scientific). The next day, cells were centrifuged (300 × g, 5 min), resuspended in Assay Media (Complete Media without FBS) and plated at 33,333 cells/well in a 96-well cell culture plate. PBMCs were then primed with 100 ng/ml LPS (E. coli O26:B6) for 4 h. Following LPS priming, PBMCs were incubated with VEN-02XX pre-diluted in assay media with 0.8% DMSO, for 30 min (top concentration 100 µM; 4-fold titration). Following drug incubation, PBMCs were stimulated with 10 µM Nigericin (Millipore-Sigma, Burlington, MA) for an additional 60 min, after which conditioned media was collected for analysis of secreted IL-1β in an electrochemiluminescence immunoassay (Mesoscale Discovery).

[2] = Mouse pharmacokinetic study, 7 days oral dosing, blood; format: in vivo; details: WT mice
Description: Male C57Bl/6 mice (weight 20–30 g, age 6–8 weeks old) were obtained from Charles River Laboratories Canada, and acclimated for 5 days before the study. Three animals were dosed by oral gavage during 7 days with 20 mg/kg of VEN-02XX suspended in 0.5% w/v methylcellulose/0.2% w/v Tween 80, at a dose volume of 10 mL/kg. Food and water were available ad libitum to all animals. On day 7, serial blood samples were collected from a tail snip at 0.25, 0.5, 1, 2, 4, 6, and 24 h post-dose, and […] of blood was added to a micro tube racked system pre-filled with […] of 10 mM sodium citrate buffer (final blood/buffer ratio 1:3, or dilution factor of 4). The plate was stored at −20 °C until LC-MS/MS analysis.
Concentrations of VEN-02XX in plasma and brain were determined by a LC-MS/MS assay. The plasma samples were thawed at room temperature and 20 μL aliquot of each sample was added to a 1.2 mL deep 96-well plate containing 20 µL ACN. The standard curve was prepared by making different dilutions in ACN. A 20 µL standard solution at each concentration was added into a 96-deepwell plate, followed by addition of 20 µL blank plasma or brain homogenate. Then, 200 μL of an internal standard mixture (5 ng/mL Glyburide and Loperamide in ACN) was added to each sample. The plates were vortexed and centrifuged at 4000 rpm for 10 min at 4 °C; 70 μL of the supernatant was diluted with 140 μL of water, and 10 μL of the solution was injected onto an analytical column. A Shimadzu UPLC system coupled with a SCIEX 4500 mass spectrometer (AB Sciex, Foster City, CA) was used for sample analysis. The mobile phase A was 0.1% FA in water and mobile phase B was 0.1% FA in 1/5 IPA/ACN. The gradient started at 10% B, held for 0.2 min and increased to 95% B in 1.3 min, maintained at 95% B for 0.7 min, and then decreased to 10% B within 0.01 min. The total flow rate was 0.5 mL/min, and samples were injected onto an Acquity UPLC BEH C18 (2.1 mm × 5 cm, 2.3 u) analytical column with a total run time of 2.5 min. Data were acquired using multiple reactions monitoring (MRM) in positive ion electrospray mode with an operating source temperature of 400 °C. Two transitions were monitored for VEN-02XX and the more sensitive transition with less interference (397.1 –> 270.1) was used for quantification.
Pharmacokinetic parameters were determined by non-compartmental analysis using WinNonLin software (Phoenix^TM, version 8.3), and the following parameters were calculated from the plasma concentrations versus time data: T1/2, Cmax, Tmax, AUCinf, AUClast. When appropriate, the brain Kp was calculated as AUClast(brain)/AUClast(plasma). Free brain partition coefficient (Kpuu) was calculated using the free fraction in plasma and brain measured in a high throughput equilibrium dialysis assay.

human NLRP3 = human NLRP3 (Homo sapiens, UniProt Q96P20); experiment: SPR analysis of interaction with human NLRP3; format: binding
Description: VEN-02XX was profiled in vitro to confirm specific binding to human NLRP3 as well as activity in various cellular assays.
The human NLRP3 protein was immobilized onto a nickel-NTA surface (Xantec NiHC1500M). Assay was run in 25 mM HEPES pH 7.5, 150 mM NaCl, 5 mM MgCl2, 0.5 mM TCEP, 0.5 mM ADP, 0.05% Tween-20 and 1% DMSO at 25 °C. Single-cycle method was used, and compound was injected over surface with a contact time of 120 s on and 600 s off by Biocore 8 K machine (Cytiva). A 5-points solvent correction curve was run pre and post run to correct for refractive index of DMSO. Data was then analyzed using the Biacore evaluation software to report binding kinetic parameters.

AIM2 = AIM2 in vitro selectivity assay (THP1-KO-NLRP3 cells, Poly(dA:dT), IL-1β); format: cell-based; details: n = 2; top concentration 50 µM
Description: THP1-KO-NLRP3 cells (Invivogen, San Diego, CA), resuspended in RPMI 1640 (Thermo Fisher Scientific) supplemented with 25 mM HEPES (Thermo Fisher Scientific), 10% FBS (Thermo Fisher Scientific) and 1% Penicillin-Streptomycin (Thermo Fisher Scientific), were seeded at 75,000 cells/well in a 96-well cell culture plate and treated with 50 ng/ml Phorbol 12-myristate 13-acetate (PMA, Millipore) for 24 h at 37 °C with 5% CO2. The next day, the media was replaced with fresh media containing 2.2% FBS, and cells were pretreated for 60 min with VEN-02XX (top concentration 50 µM; 5-fold titration) before DNA transfection. Lipofectamine 2000 (Thermo Fisher Scientific), for a final concentration of 2 µg/ml, and Poly(dA:dT) (Invivogen), for a final concentration of 1 µg/ml, were mixed together in OptiMEM (Thermo Fisher Scientific) 5 min before their addition to the cells. After a 24-h incubation at 37 °C with 5% CO2, supernatants were collected and IL-1β levels determined in an electrochemiluminescence immunoassay (Mesoscale Discovery).

[3] = male, C57Bl/6, mouse, whole blood, blood, 20 mg/kg PO QD for seven days

Chain of human NLRP3 (Q96P20 whole entry): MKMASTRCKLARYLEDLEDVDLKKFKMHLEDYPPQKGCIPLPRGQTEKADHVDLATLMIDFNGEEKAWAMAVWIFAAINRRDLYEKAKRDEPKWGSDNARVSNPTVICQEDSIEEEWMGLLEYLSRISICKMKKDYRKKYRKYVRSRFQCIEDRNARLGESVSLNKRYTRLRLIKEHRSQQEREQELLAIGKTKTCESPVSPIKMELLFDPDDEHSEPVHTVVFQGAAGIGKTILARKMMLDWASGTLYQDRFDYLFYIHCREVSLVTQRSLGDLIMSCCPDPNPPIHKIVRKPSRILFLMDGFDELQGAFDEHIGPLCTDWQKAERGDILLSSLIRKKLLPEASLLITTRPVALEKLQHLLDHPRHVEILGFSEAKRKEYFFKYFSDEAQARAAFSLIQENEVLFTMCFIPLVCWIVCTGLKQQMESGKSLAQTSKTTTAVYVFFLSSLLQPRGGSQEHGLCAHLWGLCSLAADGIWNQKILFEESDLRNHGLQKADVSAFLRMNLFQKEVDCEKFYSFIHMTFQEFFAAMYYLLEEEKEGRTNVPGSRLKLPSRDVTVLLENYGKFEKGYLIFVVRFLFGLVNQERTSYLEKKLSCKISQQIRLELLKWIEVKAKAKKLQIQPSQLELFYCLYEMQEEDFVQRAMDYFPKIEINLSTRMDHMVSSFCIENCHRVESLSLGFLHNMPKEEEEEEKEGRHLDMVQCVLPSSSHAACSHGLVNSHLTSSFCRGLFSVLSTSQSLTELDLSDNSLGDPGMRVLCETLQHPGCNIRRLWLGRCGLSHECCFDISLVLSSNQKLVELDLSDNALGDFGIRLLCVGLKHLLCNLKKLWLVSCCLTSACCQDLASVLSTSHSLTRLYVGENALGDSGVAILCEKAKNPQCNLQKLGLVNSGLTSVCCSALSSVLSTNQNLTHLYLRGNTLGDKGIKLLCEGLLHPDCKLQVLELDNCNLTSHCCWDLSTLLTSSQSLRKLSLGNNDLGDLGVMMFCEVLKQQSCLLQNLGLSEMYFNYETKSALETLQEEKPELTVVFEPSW

CC(C)(O)CNc1nnc(-c2ccc(Cl)cc2C(F)(F)F)c2ccncc12 [VEN-02XX]
IC50 ([1]; Homo sapiens, PBMC, geometric mean, n = 3, read-out: IL-1β inhibition (PBMCs) IC50): 350 nM
potency of NLRP3 inhibition in PBMC ([1]; in words): sub-micromolar potency
NLRP3 inhibitory activity maintained by exposure ([2]; 20 mg/kg PO once daily, 7 days): sufficient to maintain a 50% inhibitory activity of NLRP3 throughout the dosing schedule
AUC(0-inf) [2, 3]: 143 µM·h
Cmax [2, 3]: 20.7 µM
Tmax [2, 3]: 1 h
half-life [2, 3]: 3.16 h
Kd (human NLRP3; human NLRP3): 93.3 nM
residence time (human NLRP3; human NLRP3, read-out: residence time (1/kd) (converted)): 12.9 min
kon (human NLRP3; pH 7.5, 1:1 binding, read-out: ka): 13800 M⁻¹ s⁻¹
block of IL-1β release downstream of AIM2 (AIM2): inability to block IL-1β release
